Source: patent US9249127B2 (Orion Corporation, priority 2012, dated 2016)
Read-outs that look alike come from different tables or passages of the source.

Biological target: T1, alpha2A receptor (Homo sapiens, UniProt P08913)
T1 sequence (P08913 1-465): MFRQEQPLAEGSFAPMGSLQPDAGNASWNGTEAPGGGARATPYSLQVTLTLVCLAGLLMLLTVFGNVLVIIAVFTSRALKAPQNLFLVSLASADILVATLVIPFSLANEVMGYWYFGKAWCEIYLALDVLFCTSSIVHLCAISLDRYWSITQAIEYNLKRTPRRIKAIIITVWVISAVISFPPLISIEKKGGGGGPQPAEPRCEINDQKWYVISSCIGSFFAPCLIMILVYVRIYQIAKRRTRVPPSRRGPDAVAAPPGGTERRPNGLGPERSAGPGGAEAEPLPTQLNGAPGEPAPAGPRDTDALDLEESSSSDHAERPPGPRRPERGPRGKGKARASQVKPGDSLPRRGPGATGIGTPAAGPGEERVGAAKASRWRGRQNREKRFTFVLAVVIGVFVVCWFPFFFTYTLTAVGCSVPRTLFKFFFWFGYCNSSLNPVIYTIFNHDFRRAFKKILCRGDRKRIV
Experiment: Alpha2A agonistic activity in vitro
Type: cell-based

[1] = Alpha2A Agonism pEC50, in vitro
[2] = in vitro, read-out: Alpha2A Agonism pEC50 (converted)

C#Cc1cccc2c1CCOC2C1=NCCN1 (stereo not shown) [Example 15, 2-(5-Ethynylisochroman-1-yl)-4,5-dihydro-1H-imidazole]
EC50 [1]: 15.8 nM
Alpha2A Intrinsic Activity (in vitro): 0.88

CC[C@@H]1Cc2c(cccc2C(F)(F)F)C(C2=NCCN2)O1 (stereo partly drawn) [Example 16, 2-((3R)-3-ethyl-5-(trifluoromethyl)isochroman-1-yl)-4,5-dihydro-1H-imidazole]
Alpha2A Intrinsic Activity (in vitro): 0.51
EC50 [2]: 50.1 nM

COc1cccc2c1CCOC2C1=NCCN1 (stereo not shown) [Example 17, 2-(5-Methoxyisochroman-1-yl)-4,5-dihydro-1H-imidazole]
Alpha2A Intrinsic Activity (in vitro): 0.81
EC50 [2]: 25.1 nM

Ic1cccc2c1CCOC2C1=NCCN1 (stereo not shown) [Example 18, 2-(5-Iodoisochroman-1-yl)-4,5-dihydro-1H-imidazole]
EC50 [1]: 2 nM
Alpha2A Intrinsic Activity (in vitro): 0.81

C[C@@H]1Cc2c(cccc2C(F)(F)F)C(C2=NCCN2)O1 (stereo partly drawn) [Example 19, 2-((3R)-3-methyl-5-(trifluoromethyl)isochroman-1-yl)-4,5-dihydro-1H-imidazole]
EC50 [1]: 5.01 nM
Alpha2A Intrinsic Activity (in vitro): 0.81

CC1COC(C2=NCCN2)c2cccc(Br)c21 (stereo not shown) [Example 20, 2-(5-Bromo-4-methylisochroman-1-yl)-4,5-dihydro-1H-imidazole]
EC50 [1]: 63.1 nM
Alpha2A Intrinsic Activity (in vitro): 0.87

Cc1cccc2c1C[C@@H](C)OC2(C)C1=NCCN1 (stereo partly drawn) [Example 23, 2-((3R)-1,3,5-trimethylisochroman-1-yl)-4,5-dihydro-1H-imidazole]
Alpha2A Intrinsic Activity (in vitro): 0.68
EC50 [2]: 316 nM

CC1(C2=NCCN2)OCCc2c(C3CC3)cccc21 (stereo not shown) [Example 24]
Alpha2A Intrinsic Activity (in vitro): 0.20
EC50 [2]: 794 nM

Cc1cccc2c1CC(C)OC2C1=NCCN1 (stereo not shown) [Example 25, 2-(3,5-Dimethylisochroman-1-yl)-4,5-dihydro-1H-imidazole]
EC50 [1]: 3.16 nM
Alpha2A Intrinsic Activity (in vitro): 0.82

CC1Cc2c(Cl)cccc2C(C2=NCCN2)O1 (stereo not shown) [Example 26, 2-(5-Chloro-3-methylisochroman-1-yl)-4,5-dihydro-1H-imidazole]
EC50 [1]: 3.98 nM
Alpha2A Intrinsic Activity (in vitro): 0.82

CCC1Cc2c(C)cccc2C(C2=NCCN2)O1 (stereo not shown) [Example 27, 2-(3-Ethyl-5-methylisochroman-1-yl)-4,5-dihydro-1H-imidazole]
EC50 [1]: 25.1 nM
Alpha2A Intrinsic Activity (in vitro): 0.69

CC1Cc2c(Cl)cccc2C(C)(C2=NCCN2)O1 (stereo not shown) [Example 28, 2-(5-Chloro-1,3-dimethylisochroman-1-yl)-4,5-dihydro-1H-imidazole]
Alpha2A Intrinsic Activity (in vitro): 0.64
EC50 [2]: 1000 nM

CC1Cc2c(Br)cccc2C(C2=NCCN2)O1 (stereo not shown) [Example 29, 2-(5-Bromo-3-methylisochroman-1-yl)-4,5-dihydro-1H-imidazole]
EC50 [1]: 2 nM
Alpha2A Intrinsic Activity (in vitro): 0.99

Cc1cccc2c1CC(C)OC2(C)C1=NCCN1 (stereo not shown) [Example 30, 2-(1,3,5-Trimethylisochroman-1-yl)-4,5-dihydro-1H-imidazole]
Alpha2A Intrinsic Activity (in vitro): 0.60
EC50 [2]: 794 nM

CC1Cc2c(Br)cccc2C(C)(C2=NCCN2)O1 (stereo not shown) [Example 31, 2-(5-Bromo-1,3-dimethylisochroman-1-yl)-4,5-dihydro-1H-imidazole]
Alpha2A Intrinsic Activity (in vitro): 0.43
EC50 [2]: 1260 nM

C[C@@H]1Cc2c(Br)cccc2C(C2=NCCN2)O1 (stereo partly drawn) [Example 32, 2-((3R)-5-bromo-3-methylisochroman-1-yl)-4,5-dihydro-1H-imidazole]
EC50 [1]: 1 nM
Alpha2A Intrinsic Activity (in vitro): 0.92

C[C@@H]1Cc2c(Cl)cccc2C(C2=NCCN2)O1 (stereo partly drawn) [Example 33, 2-((3R)-5-chloro-3-methylisochroman-1-yl)-4,5-dihydro-1H-imidazole]
EC50 [1]: 1.58 nM
Alpha2A Intrinsic Activity (in vitro): 0.93

C[C@H]1Cc2c(Cl)cccc2C(C2=NCCN2)O1 (stereo partly drawn) [Example 34, 2-((3S)-5-chloro-3-methylisochroman-1-yl)-4,5-dihydro-1H-imidazole]
EC50 [1]: 63.1 nM
Alpha2A Intrinsic Activity (in vitro): 0.78

C[C@H]1Cc2c(Br)cccc2C(C2=NCCN2)O1 (stereo partly drawn) [Example 35, 2-((3S)-5-bromo-3-methylisochroman-1-yl)-4,5-dihydro-1H-imidazole]
EC50 [1]: 15.8 nM
Alpha2A Intrinsic Activity (in vitro): 0.80

Cc1cccc2c1C[C@@H](C)OC2C1=NCCN1 (stereo partly drawn) [Example 36, 2-((3R)-3,5-dimethylisochroman-1-yl)-4,5-dihydro-1H-imidazole]
EC50 [1]: 1.58 nM
Alpha2A Intrinsic Activity (in vitro): 0.90

Cc1cccc2c1C[C@H](C)OC2C1=NCCN1 (stereo partly drawn) [Example 37, 2-((3S)-3,5-dimethylisochroman-1-yl)-4,5-dihydro-1H-imidazole]
Alpha2A Intrinsic Activity (in vitro): 0.63
EC50 [2]: 316 nM

COc1cccc2c1CC(C)OC2C1=NCCN1 (stereo not shown) [Example 38, 2-(5-Methoxy-3-methylisochroman-1-yl)-4,5-dihydro-1H-imidazole]
EC50 [1]: 12.6 nM
Alpha2A Intrinsic Activity (in vitro): 0.92

CCc1cccc2c1CC(C)OC2C1=NCCN1 (stereo not shown) [Example 39, 2-(5-Ethyl-3-methylisochroman-1-yl)-4,5-dihydro-1H-imidazole]
EC50 [1]: 15.8 nM
Alpha2A Intrinsic Activity (in vitro): 0.67

CCCC1Cc2c(Br)cccc2C(C2=NCCN2)O1 (stereo not shown) [Example 40, 2-(5-Bromo-3-propylisochroman-1-yl)-4,5-dihydro-1H-imidazole]
Alpha2A Intrinsic Activity (in vitro): 0.31
EC50 [2]: 316 nM

CC(C)c1cccc2c1CCOC2C1=NCCN1 (stereo not shown) [Example 41, 2-(5-Isopropylisochroman-1-yl)-4,5-dihydro-1H-imidazole]
Alpha2A Intrinsic Activity (in vitro): 0.27
EC50 [2]: 251 nM

Fc1cccc2c1CCOC2C1=NCCN1 (stereo not shown) [Example 42, 2-(5-Fluoroisochroman-1-yl)-4,5-dihydro-1H-imidazole]
EC50 [1]: 39.8 nM
Alpha2A Intrinsic Activity (in vitro): 0.62

CCC1Cc2c(Br)cccc2C(C2=NCCN2)O1 (stereo not shown) [Example 43, 2-(5-Bromo-3-ethylisochroman-1-yl)-4,5-dihydro-1H-imidazole]
EC50 [1]: 50.1 nM
Alpha2A Intrinsic Activity (in vitro): 0.58

COc1cccc2c1C[C@@H](C)OC2C1=NCCN1 (stereo partly drawn) [Example 44, 2-((3R)-5-methoxy-3-methylisochroman-1-yl)-4,5-dihydro-1H-imidazole]
EC50 [1]: 7.94 nM
Alpha2A Intrinsic Activity (in vitro): 0.83

CCc1cccc2c1C[C@@H](C)OC2C1=NCCN1 (stereo partly drawn) [Example 45, 2-((3R)-5-ethyl-3-methylisochroman-1-yl)-4,5-dihydro-1H-imidazole]
EC50 [1]: 6.31 nM
Alpha2A Intrinsic Activity (in vitro): 0.73

CCC1Cc2c(OC)cccc2C(C2=NCCN2)O1 (stereo not shown) [Example 46, 2-(3-Ethyl-5-methoxyisochroman-1-yl)-4,5-dihydro-1H-imidazole]
EC50 [1]: 79.4 nM
Alpha2A Intrinsic Activity (in vitro): 0.45

CCc1cccc2c1C[C@@H](CC)OC2C1=NCCN1 (stereo partly drawn) [Example 47, 2-((3R)-3,5-diethylisochroman-1-yl)-4,5-dihydro-1H-imidazole]
Alpha2A Intrinsic Activity (in vitro): 0.22
EC50 [2]: 2000 nM

CC[C@@H]1Cc2c(C)cccc2C(C2=NCCN2)O1 (stereo partly drawn) [Example 48, 2-((3R)-3-ethyl-5-methylisochroman-1-yl)-4,5-dihydro-1H-imidazole]
EC50 [1]: 25.1 nM
Alpha2A Intrinsic Activity (in vitro): 0.58

C[C@@H]1Cc2c(OC(F)(F)F)cccc2C(C2=NCCN2)O1 (stereo partly drawn) [Example 49, 2-((3R)-3-methyl-5-(trifluoromethoxy)isochroman-1-yl)-4,5-dihydro-1H-imidazole]
Alpha2A Intrinsic Activity (in vitro): 0.35
EC50 [2]: 126 nM

C[C@@H]1Cc2c(F)cccc2C(C2=NCCN2)O1 (stereo partly drawn) [Example 50, 2-((3R)-5-fluoro-3-methylisochroman-1-yl)-4,5-dihydro-1H-imidazole]
EC50 [1]: 25.1 nM
Alpha2A Intrinsic Activity (in vitro): 0.90

CCOc1cccc2c1CCOC2C1=NCCN1 (stereo not shown) [Example 51, 2-(5-Ethoxyisochroman-1-yl)-4,5-dihydro-1H-imidazole]
Alpha2A Intrinsic Activity (in vitro): 0.26
EC50 [2]: 631 nM

Cc1cccc2c1CC(CC(F)(F)F)OC2C1=NCCN1 (stereo not shown) [Example 52, 2-(5-Methyl-3-(2,2,2-trifluoroethyl)isochroman-1-yl)-4,5-dihydro-1H-imidazole]
Alpha2A Intrinsic Activity (in vitro): 0.41
EC50 [2]: 100 nM

COc1cccc2c1C[C@H](C)OC2C1=NCCN1 (stereo partly drawn) [Example 53, 2-((3S)-5-methoxy-3-methylisochroman-1-yl)-4,5-dihydro-1H-imidazole]
Alpha2A Intrinsic Activity (in vitro): 0.72
EC50 [2]: 316 nM

c1cc(-c2ccoc2)c2c(c1)C(C1=NCCN1)OCC2 (stereo not shown) [Example 54, 2-(5-(Furan-3-yl)isochroman-1-yl)-4,5-dihydro-1H-imidazole]
Alpha2A Intrinsic Activity (in vitro): 0.16
EC50 [2]: 1000 nM

CC#Cc1cccc2c1CCOC2C1=NCCN1 (stereo not shown) [Example 55, 2-(5-(Prop-1-yn-1-yl)isochroman-1-yl)-4,5-dihydro-1H-imidazole]
Alpha2A Intrinsic Activity (in vitro): 0.80
EC50 [2]: 126 nM

NC(=O)c1cccc2c1CCOC2C1=NCCN1 (stereo not shown) [Example 56, 1-(4,5-Dihydro-1H-imidazol-2-yl)isochroman-5-carboxamide]
Alpha2A Intrinsic Activity (in vitro): 0.11
EC50 [2]: 3160 nM

c1cc2c3c(c1)C(C1=NCCN1)OCC3CCCC2 (stereo not shown) [Example 57, 2-(3,7,8,9,10,10a-Hexahydro-1H-cyclohepta[de]isochromen-3-yl)-4,5-dihydro-1H-imidazole]
Alpha2A Intrinsic Activity (in vitro): 0.11
EC50 [2]: 2000 nM

CC(O)c1cccc2c1CCOC2C1=NCCN1 (stereo not shown) [Example 58, 1-(1-(4,5-Dihydro-1H-imidazol-2-yl)isochroman-5-yl)ethanol]
Alpha2A Intrinsic Activity (in vitro): 0.47

Cc1cc(C)c2c(c1)C(C1=NCCN1)OCC2 (stereo not shown) [Example 59, 2-(5,7-Dimethylisochroman-1-yl)-4,5-dihydro-1H-imidazole]
EC50 [1]: 39.8 nM
Alpha2A Intrinsic Activity (in vitro): 0.81
